Reference: patent US6559101B2, “N- (5, 7-dimethoxy [1, 2, 4] triazolo [1, 5-a] pyrimidin-2-yl) arylsulfonamide compounds and their use as herbicides” (Dow AgroSciences LLC, priority 2000, dated 2003)

Key:
Assay type in all cases: in vivo
[1] = test system: giant foxtail (Setaria faberi); assay: Preemergence herbicidal activity; conditions: scored after 3 weeks, 0 no injury, 100 complete kill or no germination
Method: (§1) The soil matrix was contained in plastic pots with a surface area of 161 square centimeters. When required to ensure good germination and healthy plants, a fungicide treatment and/or other chemical or physical treatment was applied. A weighed amount, determined by the highest rate to be tested, of each test compound was placed in a 20 mL glass vial and was dissolved in 8 mL of a 97:3 v/v (volume/volume) mixture of acetone and dimethyl sulfoxide to obtain concentrated stock solutions. […] The stock solutions obtained were diluted with a 99.9:0.1 mixture of water and Tween® 155 surfactant (ethoxylated sorbitan fatty acid ester) to obtain application solutions of known concentration. The solutions containing the highest concentration to be tested were prepared by diluting 4 mL aliquots of the stock solution with 8.5 mL of the mixture and lower concentrations were prepared by dilution of appropriate smaller portions of the stock solution. A 2.5 mL aliquot of each solution of known concentration was sprayed evenly onto the soil of each seeded pot using a Cornwall 5.0 mL glass syringe fitted with a TeeJet TN-3 hollow cone nozzle to obtain thorough coverage of the soil in each pot. Control pots were sprayed in the same manner with the aqueous mixture. A highest application rate of 4.48 kg/ha is achieved when 50 mg of test compound is employed. The treated pots and control pots were placed in a greenhouse with an approximately 15 hr photoperiod which was maintained at about 23-29° C. during the day and 22-28° C. during the night. Nutrients and water were added on a regular basis and supplemental lighting was provided with overhead metal halide 1000 Watt lamps as necessary. The water was added by top-irrigation. After 3 weeks the condition of the test plants that germinated and grew as compared with that of the untreated plants that germinated and grew was determined visually and scored on a scale of 0 to 100 percent where 0 corresponds to no injury and 100 corresponds to complete kill or no germination.

[2] = test system: wild poinsettia (Euphorbia heterophylla); assay: Preemergence herbicidal activity; conditions: scored after 3 weeks, 0 no injury, 100 complete kill or no germination
Method: as §1

[3] = test system: cocklebur (Xanthium strumarium); assay: Preemergence herbicidal activity; conditions: scored after 3 weeks, 0 no injury, 100 complete kill or no germination
Method: as §1

wild oats (Avena fatua) [4] = assay: Preemergence herbicidal activity; conditions: scored after 3 weeks, 0 no injury, 100 complete kill or no germination
Method: as §1

[5] = test system: lambsquarters (Chenopodium album); assay: Preemergence herbicidal activity; conditions: scored after 3 weeks, 0 no injury, 100 complete kill or no germination
Method: as §1

[6] = test system: blackgrass (Alopecurus myosuroides); assay: Preemergence herbicidal activity; conditions: scored after 3 weeks, 0 no injury, 100 complete kill or no germination
Method: as §1

[7] = test system: Rox orange sorghum (Sorghum bicolor); assay: Preemergence herbicidal activity; conditions: scored after 3 weeks, 0 no injury, 100 complete kill or no germination
Method: as §1

[8] = test system: barnyardgrass (Echinochloa crus-galli); assay: Preemergence herbicidal activity; conditions: scored after 3 weeks, 0 no injury, 100 complete kill or no germination
Method: as §1

[9] = test system: morningglory (Ipomoea hederacea); assay: Preemergence herbicidal activity; conditions: scored after 3 weeks, 0 no injury, 100 complete kill or no germination
Method: as §1

[10] = test system: crabgrass (Digitaria sanguinalis); assay: Preemergence herbicidal activity; conditions: scored after 3 weeks, 0 no injury, 100 complete kill or no germination
Method: as §1

[11] = test system: velvetleaf (Abutilion theophrasti); assay: Preemergence herbicidal activity; conditions: scored after 3 weeks, 0 no injury, 100 complete kill or no germination
Method: as §1

[12] = test system: pigweed (Amaranthus retroflexus); assay: Preemergence herbicidal activity; conditions: scored after 3 weeks, 0 no injury, 100 complete kill or no germination
Method: as §1

[13] = test system: giant foxtail (Setaria faberi); assay: Postemergence herbicidal activity; conditions: 62.5 ppm; scored after 2 weeks; 0 no injury, 100 complete kill
Method: (§2) Seeds of the desired test plant species were planted in Grace-Sierra MetroMix® 306 planting mixture, which typically has a pH of 6.0 to 6.8 and an organic matter content of about 30 percent, in plastic pots with a surface area of 64 square centimeters. When required to ensure good germination and healthy plants, a fungicide treatment and/or other chemical or physical treatment was applied. The plants were grown for 7-21 days in a greenhouse with an approximately 15 hr photoperiod which was maintained at about 23-29° C. during the day and 22-28° C. during the night. Nutrients and water were added on a regular basis and supplemental lighting was provided with overhead metal halide 1000 Watt lamps as necessary. The plants were employed for testing when they reached the first or second true leaf stage. A weighed amount of each test compound, determined by the highest rate to be tested, was placed in a 20 mL glass vial and was dissolved in 4 mL of a 97:3 v/v (volume/volume) mixture of acetone and dimethyl sulfoxide to obtain concentrated stock solutions. […] The concentrated stock solutions obtained were diluted with an aqueous mixture containing acetone, water, iso-propyl alcohol, dimethyl sulfoxide, Atplus 411F crop oil concentrate, and Triton X-155 surfactant (methylenebisdiamyl phenoxy polyethoxy ethanol) in a 48.5:39:10:1.5:1.0:0.02 v/v ratio to obtain spray solutions of known concentration. The solutions containing the highest concentration to be tested were prepared by diluting 2 mL aliquots of the stock solution with 13 mL of the mixture and lower concentrations were prepared by dilution of appropriate smaller portions of the stock solution. Approximately 1.5 mL aliquots of each solution of known concentration were sprayed evenly onto each of the test plant pots using a Devilbiss atomizer driven by compressed air pressure of 2 to 4 psi (140 to 280 kiloPascals) to obtain thorough coverage of each plant. Control plants were sprayed in the same manner with the aqueous mixture. In this test an application rate of 1 ppm results in the application of approximately 1 g/ha. The treated plants and control plants were placed in a greenhouse as described above and watered by sub-irrigation to prevent wash-off of the test compounds. After 2 weeks the condition of the test plants as compared with that of the untreated plants was determined visually and scored on a scale of 0 to 100 percent where 0 corresponds to no injury and 100 corresponds to complete kill.

[14] = test system: chickweed (Stellaria media); assay: Postemergence herbicidal activity; conditions: 62.5 ppm; scored after 2 weeks; 0 no injury, 100 complete kill
Method: as §2

[15] = test system: cocklebur (Xanthium strumarium); assay: Postemergence herbicidal activity; conditions: 62.5 ppm; scored after 2 weeks; 0 no injury, 100 complete kill
Method: as §2

wild oats (Avena fatua) [16] = assay: Postemergence herbicidal activity; conditions: 62.5 ppm; scored after 2 weeks; 0 no injury, 100 complete kill
Method: as §2

viola (Viola tricolor) = assay: Postemergence herbicidal activity; conditions: 62.5 ppm; scored after 2 weeks; 0 no injury, 100 complete kill
Method: as §2

[17] = test system: lambsquarters (Chenopodium album); assay: Postemergence herbicidal activity; conditions: 62.5 ppm; scored after 2 weeks; 0 no injury, 100 complete kill
Method: as §2

[18] = test system: Rox orange sorghum (Sorghum bicolor); assay: Postemergence herbicidal activity; conditions: 62.5 ppm; scored after 2 weeks; 0 no injury, 100 complete kill
Method: as §2

[19] = test system: wild buckwheat (Polygonum convolvulus); assay: Postemergence herbicidal activity; conditions: 62.5 ppm; scored after 2 weeks; 0 no injury, 100 complete kill
Method: as §2

[20] = test system: morningglory (Ipomoea hederacea); assay: Postemergence herbicidal activity; conditions: 62.5 ppm; scored after 2 weeks; 0 no injury, 100 complete kill
Method: as §2

[21] = test system: velvetleaf (Abutilion theophrasti); assay: Postemergence herbicidal activity; conditions: 62.5 ppm; scored after 2 weeks; 0 no injury, 100 complete kill
Method: as §2

[22] = test system: pigweed (Amaranthus retroflexus); assay: Postemergence herbicidal activity; conditions: 62.5 ppm; scored after 2 weeks; 0 no injury, 100 complete kill
Method: as §2

[23] = test system: blackgrass (Alopecurus myosuroides); assay: Postemergence herbicidal activity; conditions: 62.5 ppm; scored after 2 weeks; 0 no injury, 100 complete kill
Method: as §2

Structure (SMILES): CCc1ccc(OC)c(S(=O)(=O)Nc2nc3nc(OC)cc(OC)n3n2)c1 [Compound 9]
- Preemergence herbicidal activity SETFA ([1]; 70 g/Ha): 20%
- Preemergence herbicidal activity EPHHL ([2]; 70 g/Ha): 0%
- Preemergence herbicidal activity XANST ([3]; 70 g/Ha): 0%
- Preemergence herbicidal activity AVEFA (wild oats (Avena fatua) [4]; 70 g/Ha): 0%
- Preemergence herbicidal activity CHEAL ([5]; 70 g/Ha): 30%
- Preemergence herbicidal activity ALOMY ([6]; 70 g/Ha): 0%
- Preemergence herbicidal activity SORBI ([7]; 70 g/Ha): 0%
- Preemergence herbicidal activity ECHCG ([8]; 70 g/Ha): 0%
- Preemergence herbicidal activity IPOHE ([9]; 70 g/Ha): 30%
- Preemergence herbicidal activity DIGSA ([10]; 70 g/Ha): 0%
- Preemergence herbicidal activity ABUTH ([11]; 70 g/Ha): 20%
- Preemergence herbicidal activity AMARE ([12]; 70 g/Ha): 40%
- Postemergence herbicidal activity SETFA [13]: 30%
- Postemergence herbicidal activity STEME [14]: 50%
- Postemergence herbicidal activity XANST [15]: 70%
- Postemergence herbicidal activity AVEFA (wild oats (Avena fatua) [16]): 20%
- Postemergence herbicidal activity VIOTR (viola (Viola tricolor)): 50%
- Postemergence herbicidal activity CHEAL [17]: 80%
- Postemergence herbicidal activity SORBI [18]: 30%
- Postemergence herbicidal activity POLCO [19]: 50%
- Postemergence herbicidal activity IPOHE [20]: 10%
- Postemergence herbicidal activity ABUTH [21]: 30%
- Postemergence herbicidal activity AMARE [22]: 70%

Structure (SMILES): COc1cc(OC)n2nc(NS(=O)(=O)c3c(OC(C)C)cccc3C(F)(F)F)nc2n1 [Compound 11]
- Preemergence herbicidal activity SETFA ([1]; 17.5 g/Ha): 100%
- Preemergence herbicidal activity EPHHL ([2]; 17.5 g/Ha): 90%
- Preemergence herbicidal activity XANST ([3]; 17.5 g/Ha): 90%
- Preemergence herbicidal activity AVEFA (wild oats (Avena fatua) [4]; 17.5 g/Ha): 60%
- Preemergence herbicidal activity CHEAL ([5]; 17.5 g/Ha): 100%
- Preemergence herbicidal activity ALOMY ([6]; 17.5 g/Ha): 100%
- Preemergence herbicidal activity SORBI ([7]; 17.5 g/Ha): 90%
- Preemergence herbicidal activity ECHCG ([8]; 17.5 g/Ha): 100%
- Preemergence herbicidal activity IPOHE ([9]; 17.5 g/Ha): 98%
- Preemergence herbicidal activity DIGSA ([10]; 17.5 g/Ha): 80%
- Preemergence herbicidal activity ABUTH ([11]; 17.5 g/Ha): 100%
- Preemergence herbicidal activity AMARE ([12]; 17.5 g/Ha): 100%
- Postemergence herbicidal activity SETFA [13]: 100%
- Postemergence herbicidal activity STEME [14]: 95%
- Postemergence herbicidal activity XANST [15]: 100%
- Postemergence herbicidal activity AVEFA (wild oats (Avena fatua) [16]): 30%
- Postemergence herbicidal activity VIOTR (viola (Viola tricolor)): 90%
- Postemergence herbicidal activity CHEAL [17]: 100%
- Postemergence herbicidal activity ALOMY [23]: 60%
- Postemergence herbicidal activity SORBI [18]: 50%
- Postemergence herbicidal activity POLCO [19]: 100%
- Postemergence herbicidal activity IPOHE [20]: 80%
- Postemergence herbicidal activity ABUTH [21]: 100%
- Postemergence herbicidal activity AMARE [22]: 100%
